In PubChem BioAssay (NCI) one finds TGI data, which are given here for 9 compounds.

Molecules are shown by their SMILES.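 Compound exposure: 48 hours, 5 concentrations, 96-well plates. TGI marks complete inhibition of growth.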

Test systems include SK-MEL-2 melanoma; SR leukemia; MDA-MB-435; MOLT-4 leukemia; SK-MEL-28 melanoma; NCI-H522 lung; PC-3 prostate; TK-10 renal; HOP-92 NSCLC; IGROV1 ovarian; NCI/ADR-RES ovarian; LOX IMVI melanoma; CCRF-CEM leukemia; DU-145 prostate; KM12 colon; HCC-2998 colon.
Assay in all cases: inhibition of tumour cell growth, NCI panel, 48 h

As for `Cc1c2cccc-2ccc2c3ccccc3n(C(=O)c3ccc(Cl)cc3)c12`, the TGI with SK-MEL-2 melanoma, in the test on SR leukemia, with MDA-MB-435, with MOLT-4 leukemia, in the test on SK-MEL-28 melanoma and in the test with NCI-H522 lung was above 100 µM each time. The TGI in the test with PC-3 prostate, with TK-10 renal, in the test on HOP-92 NSCLC, in the test with IGROV1 ovarian, with NCI/ADR-RES ovarian and in the test on LOX IMVI melanoma was above 100 µM each time. Besides, the TGI in the test on CCRF-CEM leukemia, in the test on DU-145 prostate and in the test with KM12 colon was above 100 µM in each case.

Turning to `N#Cc1c(N)nc2c3c1NC(=O)C(C(N)=O)C3c1ccccc1O2` (stereo unspecified), the TGI with SK-MEL-2 melanoma, in the test with SR leukemia, in the test with MDA-MB-435, in the test on MOLT-4 leukemia, with SK-MEL-28 melanoma and with HCC-2998 colon was above 100 µM in each case. Moreover, the TGI in the test on NCI-H522 lung was 70.6 µM; with PC-3 prostate it was above 100 µM; with TK-10 renal it was above 100 µM; in the test on HOP-92 NSCLC, 71.9 µM; in the test with IGROV1 ovarian, 79.8 µM; in the test on NCI/ADR-RES ovarian, above 100 µM. In addition, the TGI with LOX IMVI melanoma, in the test on CCRF-CEM leukemia, with DU-145 prostate and in the test with KM12 colon was above 100 µM each time.

Take `OC(NN=C1CCCC1)(C(F)(F)Cl)C(F)(F)Cl`: the TGI in the test on SK-MEL-2 melanoma, in the test with SR leukemia, in the test with MDA-MB-435, in the test with MOLT-4 leukemia, with SK-MEL-28 melanoma and in the test with HCC-2998 colon was above 10 µM each time. Further, the TGI in the test on NCI-H522 lung, in the test on PC-3 prostate, in the test on TK-10 renal, with HOP-92 NSCLC, in the test with IGROV1 ovarian and in the test with NCI/ADR-RES ovarian was above 10 µM each time. Moreover, the TGI in the test with LOX IMVI melanoma, in the test with CCRF-CEM leukemia, in the test on DU-145 prostate and in the test with KM12 colon was above 10 µM each time.

Take `Cc1ncc(COP(=O)(O)O)c(/C=C2\SC(=S)NC2=O)c1O`: the TGI with SK-MEL-2 melanoma, in the test on SR leukemia, in the test with MDA-MB-435, in the test with MOLT-4 leukemia, in the test with SK-MEL-28 melanoma and with HCC-2998 colon was above 100 µM in each case. The TGI in the test on NCI-H522 lung, in the test on PC-3 prostate, in the test with TK-10 renal, in the test with HOP-92 NSCLC, with IGROV1 ovarian and in the test with NCI/ADR-RES ovarian was above 100 µM throughout. Further, the TGI in the test on LOX IMVI melanoma, in the test on DU-145 prostate and in the test on KM12 colon was above 100 µM in each case.

For the compound `Cc1ccc(S(=O)(=O)NC(=O)C2=C3SCCN3C(=O)N(S(=O)(=O)c3ccc(C)cc3)C2c2ccccc2)cc1` (stereo unspecified), the TGI with SK-MEL-2 melanoma is above 100 µM; with SR leukemia, above 100 µM; with MDA-MB-435 it was 61 µM; in the test on MOLT-4 leukemia it was above 100 µM; in the test on SK-MEL-28 melanoma, above 100 µM; in the test with HCC-2998 colon, 48 µM. The TGI in the test with NCI-H522 lung was 46.7 µM; in the test with PC-3 prostate, above 100 µM; in the test with TK-10 renal, above 100 µM; in the test with HOP-92 NSCLC it was above 100 µM; with IGROV1 ovarian, above 100 µM; in the test with NCI/ADR-RES ovarian it was above 100 µM. Besides, the TGI was above 100 µM in the test on LOX IMVI melanoma, 60.5 µM in the test on CCRF-CEM leukemia, above 100 µM with DU-145 prostate and 71.6 µM in the test with KM12 colon.

Take `Cc1nc(-c2cc3ccccc3oc2=O)cs1`: the TGI with SK-MEL-2 melanoma, in the test on SR leukemia, in the test on MDA-MB-435, in the test on MOLT-4 leukemia, in the test with SK-MEL-28 melanoma and with HCC-2998 colon was above 100 µM in each case. For the same compound, the TGI in the test with NCI-H522 lung was above 100 µM; in the test with PC-3 prostate it was above 100 µM; in the test with TK-10 renal it was above 100 µM; with HOP-92 NSCLC, 53.9 µM; with IGROV1 ovarian, above 100 µM; in the test on NCI/ADR-RES ovarian, above 100 µM. The TGI in the test with LOX IMVI melanoma, with CCRF-CEM leukemia, with DU-145 prostate and with KM12 colon was above 100 µM in each case.

In the case of `CCN(CC)C(=O)CCN1CC1`, the TGI with SK-MEL-2 melanoma, in the test with SR leukemia, with MDA-MB-435, with MOLT-4 leukemia, in the test on SK-MEL-28 melanoma and in the test with HCC-2998 colon was above 10 µM throughout. Also, the TGI in the test with NCI-H522 lung, with PC-3 prostate, in the test with TK-10 renal, in the test with HOP-92 NSCLC, in the test on IGROV1 ovarian and in the test on NCI/ADR-RES ovarian was above 10 µM in each case. The TGI in the test with LOX IMVI melanoma, with CCRF-CEM leukemia, in the test with DU-145 prostate and with KM12 colon was above 10 µM in each case.

Regarding `NCCSCCC(=O)O`, the TGI was above 100 µM in the test on SK-MEL-2 melanoma; above 83.9 µM in the test with SR leukemia; above 100 µM in the test on MDA-MB-435; above 100 µM in the test on MOLT-4 leukemia; above 71.8 µM in the test with SK-MEL-28 melanoma; 98.4 µM in the test with HCC-2998 colon. Also, the TGI in the test with NCI-H522 lung, with PC-3 prostate, in the test with TK-10 renal, with HOP-92 NSCLC, in the test with IGROV1 ovarian and in the test with NCI/ADR-RES ovarian was above 100 µM each time. Further, the TGI in the test with LOX IMVI melanoma is above 93.7 µM; with CCRF-CEM leukemia, above 100 µM; with DU-145 prostate, above 100 µM; in the test on KM12 colon, above 100 µM.

For the compound `CC(C)Oc1cccc(N2C(Nc3ccccc3)=Nc3ccncc3S2(=O)=O)c1`, the TGI in the test on SK-MEL-2 melanoma is above 100 µM; with SR leukemia, above 100 µM; in the test on MDA-MB-435, 57 µM; in the test with MOLT-4 leukemia, above 100 µM; in the test on SK-MEL-28 melanoma, 17.2 µM; in the test with HCC-2998 colon it was 71.5 µM. The TGI with NCI-H522 lung was above 100 µM; in the test with PC-3 prostate, 45.6 µM; with HOP-92 NSCLC, 49 µM; in the test on IGROV1 ovarian, 87.6 µM; in the test with NCI/ADR-RES ovarian, 53.3 µM; in the test with LOX IMVI melanoma, 38.5 µM. Besides, the TGI in the test on CCRF-CEM leukemia was 62.4 µM; in the test on DU-145 prostate it was above 100 µM; with KM12 colon it was 65.8 µM.
